Results published in US4554281A, “2-Amino-3-acylamino-6-benzylamino-pyridine-derivative having antiepileptic action” (priority 1982, dated 1985).

Columns and labels:
[1] = MES - Maximum Electroshock Attack Test (anticonvulsive action, intraperitoneal); assay type: in vivo, mouse (male Carworth Farms Mice); conditions: in vivo, ip; mouse, intraperitoneal; number below the slanting line; read-out: quotient TD 50/ED 50 (MES), therapeutic breadth
Experimental: (§1) All experiments were carried out with male Carworth Farms Mice.
(§2) The materials were tested in three dosages (30, 100, 300 mg/kg) (600 mg/kg was co-tested if a sufficient amount of the material was present). The materials in each case were dissolved in 30% aqueous polyethylene glycol solution.
(§3) A maximum electroshock attack was obtained through alternating current (60 Hz, 50 m A intensity) with which the mouse was irritated for 0.2 seconds via corneal electrodes. A 5-7 times weaker intensity of irritation was sufficient to produce a minimum electroshock-attack. One drop of 0.9% aqueous NaCl solution was given before applying the electrodes into the eyes in order to guard against killing the animals. The test substances were dispersed intraperitoneally before the irritation. […] the tonic stretching components of the attack (rear extremities) was regarded as protective action. The results were represented as follows:
(§4) number of animals having protective action/total number of test animals

mouse [2] = experiment: as above; assay type: in vivo, mouse (male Carworth Farms Mice); conditions: ip, read-out: Maximum Electro-Shock (MES) ED 50
Experimental: as §1, §2, §3, §4

[3] = s.c. Met - Subcutaneous Pentetrazole (Metrazole) Test (anticonvulsive action, intraperitoneal); assay type: in vivo, mouse (male Carworth Farms Mice); conditions: in vivo, ip; mouse, intraperitoneal; number below the slanting line; read-out: quotient TD 50/ED 50 (MET), therapeutic breadth
Experimental: as §1, §2
(§5) The absence of a clearly noticeable attack, (single occurrence of a […] spasm lasting 5 seconds) based on the previous intraperitoneal application of the test substances evaluated as protective action (the test substances were applied intraperitoneally before the application of pentetrazole). The results were represented as follows: number of animals having protective action/total number of test animals

mouse [4] = experiment: as above; assay type: in vivo, mouse (male Carworth Farms Mice); conditions: ip, read-out: Metrazole-Test (MET) ED 50
Experimental: as §1, §2, §5

[5] = TD 50 - Neurotoxicity, rotating rod; set-up: species or system mouse (male Carworth Farms Mice); conditions: in vivo, ip, mouse, intraperitoneal
Experimental: TD 50: is the ED 50 for the behavior of the mouse on the experimental
model of the rotating rod in mg/kg with intraperitoneal application. The
TD 50 is a measure for the undesired neurotoxic side effect.
as §1, §2
The test on the rotating rod was referred to for the evaluation of the neurotoxicity. The animals were placed on a rotating (6 rotations per minute) plastic rod having a diameter of 2.54 cm. […] An animal was characterized as neurologically toxic if it fell from the rotating rod within one minute.
number of animals which fell/total number of test animals

[6] = Oral acute toxicity (LD 50) according to Miller & Tainter; set-up: species or system white mouse; conditions: in vivo, mouse, per os, observation time 24 hours
Experimental: Examples for the toxicity on the mouse per se (expressed as LD 50 in mg/kg are as follows: […]
The determination of the oral toxicity on the white mouse was carried out in the international procedure according to Miller & Tainter (Proc. Soc., Exper. Biol. a Med. Vol. 57, page 261 et. seq. (1944)) with an observation time of 24 hours. The toxicity was stated as LD 50 in mg/kg.

With `CCOC(=O)Nc1ccc(NCc2c(C)cc(C)cc2C)nc1N.Cl` [D 10 328, 2-amino-3-carbethoxyamino-6-(2,4,6-trimethyl-benzylamino)pyridine-hydrochloride] the selectivity ratio [1] was 0.55, the ED50 (mouse [2]; Mus musculus) was 1.97 mg/kg and the selectivity ratio [3] was 1.08. The ED50 (mouse [4]; Mus musculus) was 1.01 mg/kg, the TD50 [5] was 1.09 mg/kg and the LD50 at 24 h [6] was 127 mg/kg.

Work on `CCOC(=O)Nc1ccc(NCc2ccc(C(C)=O)cc2)nc1N` [D 10 558, 2-amino-3-carbethoxyamino-6-(4-methylcarbonyl-benzylamino)-pyridine] yielded a selectivity ratio [1] of 1.37, an ED50 (mouse [2]; Mus musculus) of 53.8 mg/kg and a selectivity ratio [3] of 4. For the same compound, the ED50 (mouse [4]; Mus musculus) was 18.4 mg/kg and the TD50 [5] was 73.9 mg/kg.

`CCOC(=O)Nc1ccc(NCc2cccc(F)c2)nc1N.Cl` [D 10 981, 2-amino-3-carbethoxyamino-6-(3-fluorobenzylamino)-pyridine-hydrochloride] showed a selectivity ratio [1] of 1.9, an ED50 (mouse [2]; Mus musculus) of 17.2 mg/kg and a selectivity ratio [3] of 3.61. The ED50 (mouse [4]; Mus musculus) was 9.07 mg/kg, the TD50 [5] was 32.7 mg/kg and the LD50 at 24 h [6] was 2060 mg/kg.

`CCOC(=O)Nc1ccc(NCc2ccc(C(F)(F)F)cc2)nc1N.Cl` [D 11 208, 2-amino-3-carbethoxyamino-6-(4-trifluoromethyl-benzylamino)-pyridine-hydrochloride] showed a selectivity ratio [1] of 2.73, an ED50 (mouse [2]; Mus musculus) of 27.9 mg/kg and a selectivity ratio [3] of 6.81. It also gave an ED50 (mouse [4]; Mus musculus) of 11.2 mg/kg and a TD50 [5] of 76.3 mg/kg.

For `CC(=O)Nc1ccc(NCc2ccc(F)cc2)nc1N.Cl` [D 13 223, 2-amino-3-acetamino-6-(4-fluoro-benzylamino)-pyridine-hydrochloride], the selectivity ratio [1] was 2.38, the ED50 (mouse [2]; Mus musculus) was 84.3 mg/kg and the selectivity ratio [3] was 2.14. For the same compound, the ED50 (mouse [4]; Mus musculus) was 93.8 mg/kg and the TD50 [5] was 201 mg/kg.

Compound `CCOC(=O)Nc1ccc(NCc2ccccc2)nc1N.Cl` [D 7175, 2-amino-3-carbethoxyamino-6-benzylamino-pyridine-hydrochloride] has a selectivity ratio [1] of 2.3, an ED50 (mouse [2]; Mus musculus) of 19.7 mg/kg and a selectivity ratio [3] of 4.8. The ED50 (mouse [4]; Mus musculus) was 9.46 mg/kg, the TD50 [5] was 45.6 mg/kg and the LD50 at 24 h [6] was 402 mg/kg.

With `CCOC(=O)Nc1ccc(NCc2ccc(Cl)cc2)nc1N.Cl` [D 9389, 2-amino-3-carbethoxyamino-6-(4-chlorobenzylamino)-pyridine-hydrochloride] the selectivity ratio [1] was 1.64, the ED50 (mouse [2]; Mus musculus) was 14.6 mg/kg and the selectivity ratio [3] was 2.39. The ED50 (mouse [4]; Mus musculus) was 10 mg/kg, the TD50 [5] was 23.9 mg/kg and the LD50 at 24 h [6] was 1250 to 1500 mg/kg.

For `CCOC(=O)Nc1ccc(NCc2ccc(NC(C)=O)cc2)nc1N.Cl` [D 9663, 2-amino-3-carbethoxyamino-6-(4-methylcarbonylamino-benzylamino)-pyridine-hydrochloride], the selectivity ratio [1] was 1.15, the ED50 (mouse [2]; Mus musculus) was 124 mg/kg and the selectivity ratio [3] was 2.49. The ED50 (mouse [4]; Mus musculus) was 57.2 mg/kg and the TD50 [5] was 142 mg/kg.

`CCOC(=O)Nc1ccc(NCc2ccc(S(N)(=O)=O)cc2)nc1N` [D 9805, 2-amino-3-carbethoxyamino-6-(4-aminosulfonyl-benzylamino)-pyridine] showed a selectivity ratio [1] of 4.9, an ED50 (mouse [2]; Mus musculus) of 108 mg/kg and a selectivity ratio [3] of 0.96. The ED50 (mouse [4]; Mus musculus) was 550 mg/kg and the TD50 [5] was 530 mg/kg.

In the case of `CCOC(=O)Nc1ccc(NCc2ccc(F)cc2)nc1N.Cl` [D 9998, 2-amino-3-carbethoxyamino-6-(4-fluorobenzylamino)-pyridine-hydrochloride], the selectivity ratio [1] is reported as 1.67, the ED50 (mouse [2]; mouse, intraperitoneal) is reported as 22.5 mg/kg and the selectivity ratio [3] is reported as 1.86. It also gave an ED50 (mouse [4]; mouse, intraperitoneal, s.c. pentetrazole 85 mg/kg) of 20.3 mg/kg, a TD50 [5] of 37.7 mg/kg and an LD50 at 24 h [6] of 617 mg/kg.
